The values below come from patent US20190388510A1, “GLUCAGON-T3 CONJUGATES” (priority 2016, published 2019).

Format in all cases: in vivo, mouse
Series [1] has as its system DIO mice. The experiment in a line: Glycemic control in DIO mice. To be noted: i.p. pyruvate 1.5 g kg-1. The procedure: (§1) Compounds were administered by repeated subcutaneous injections in the middle of the light phase at the indicated doses with the indicated durations. Co-administration of compounds was administered by single formulated injections. Body weights and food intake were measured every day or every other day after the first injection. All studies with wild-type mice were performed with a group size of n=8 or greater using mice on a C57B16j background.
For assessment of glucose, pyruvate, and insulin tolerance during chronic treatment, the challenge tests were performed at least 24 hours after the last administration of compounds. […]
Energy intake, energy expenditure, respiratory exchange ratio, and home-cage activity were assessed using a combined indirect calorimetry system (TSE Systems). O2 consumption and CO2 production were measured every 10 min for a total of up to 120 h (after 24 h of adaptation) to determine the respiratory quotient and energy expenditure after an initial treatment regimen. Food intake was determined continuously for the same time as the indirect calorimetry assessments by integration of scales into the sealed cage environment. Home-cage locomotor activity was determined using a multidimensional infrared light beam system with beams scanning the bottom and top levels of the cage, and activity being expressed as beam breaks. […]

The test system of series [2] is diet-induced obese (DIO) mice.
Source text: For studies on lipid handling in wildtype mice (Western mice), male C57Bl/6j mice (Jackson Laboratories) were fed a atherogenic Western diet (Research Diets D12079B), which is a high-cholesterol diet (0.21% gm %) with 41% kcal from fat, 43% kcal from carbohydrates, and 17% kcal from protein. For studies on energy metabolism in obese mice (DIO mice), male C57Bl/6j mice (Jackson Laboratories) were fed a diabetogenic diet (Research Diets D12331), which is a high-sucrose diet with 58% kcal from fat 25.5% kcal from carbohydrates, and 16.4% kcal from protein. Both dietary challenges began at 8 weeks of age. HFHSD and HFHCD mice were single- or group-housed on a 12:12-h light-dark cycle at 22° C. with free access to food and water. Mice were maintained under these conditions for a minimum of 16 weeks before initiation of pharmacological studies and were between the ages of 6 months to 12 months old. All injections and tests were performed during the light cycle. Compounds were administered in a vehicle of 1% Tween-80 and 1% DMSO and were given by daily subcutaneous injections at the indicated doses at a volume of 5 μl per g body weight. Mice were randomized and evenly distributed to test groups according to body weight and body composition. If ex vivo molecular biology/histology/biochemistry analyses were performed, the entire group of mice for each treatment was analyzed and scored in a blinded fashion.
as §1
Whole-body composition (fat and lean mass) was measured using nuclear magnetic resonance technology (EchoMRI).
Energy intake, energy expenditure, respiratory exchange ratio, and home-cage activity were assessed using a combined indirect calorimetry system (TSE Systems). O2 consumption and CO2 production were measured every 10 min for a total of up to 120 h (after 24 h of adaptation) to determine the respiratory quotient and energy expenditure after an initial treatment regimen. Food intake was determined continuously for the same time as the indirect calorimetry assessments by integration of scales into the sealed cage environment. Home-cage locomotor activity was determined using a multidimensional infrared light beam system with beams scanning the bottom and top levels of the cage, and activity being expressed as beam breaks.
Blood was collected at the indicated times from tail veins or after euthanasia using EDTA-coated microvette tubes (Sarstedt), immediately chilled on ice, centrifuged at 5,000 g and 4° C., and plasma was stored at −80° C. For […] (FPLC) of cholesterol distribution in different lipoprotein fractions, fresh plasma from each treatment group was pooled (n=6-8) and ran over two Superose 6 HR columns in tandem. Cholesterol levels in the collected fractions were determined by colorimetric assay. Plasma insulin and T3 were quantified by an ELISA assay (Ultrasenstive Mouse Insulin ELISA and Rodent T3 ELISA; Alpco). Plasma FGF21 was quantified by an ELISA assay (Mouse FGF21 ELISA; Millipore). Plasma cholesterol, extracted hepatic cholesterol, triglycerides, ALT, and AST were measured using enzymatic assay kits (Thermo Fisher). Plasma creatinine and blood urea nitrogen were measured using enzymatic assay kits (Abcam). Plasma free fatty acids were measured using enzymatic assay kits (Wako). All assays were performed according to the manufacturers' instructions. […]

Series [3] concerns DIO mice. The experiment in a line: Cardiac function and histology in DIO mice (echocardiography). The protocol: After chronic treatment, HFHCD-fed or HFHSD-fed C57B16/j male mice (age) were sacrificed with CO2, body weight as well as heart weights and tibia length was taken during necropsy. Livers and whole hearts were embedded in paraffin using a vacuum infiltration processor TissueTEK VIP (Sakura). 3 μm thick slides were cut using a HMS35 rotatory microtome (Zeiss) and H & E staining was performed. For H & E staining, rehydration was done in a decreasing ethanol series, rinsing with tapwater, 2 min Mayers acid Hemalum, bluing in tapwater followed by lmin EosinY (both BioOptica). Dehydration was performed in increasing ethanol series, mounting with Pertex® (Medite GmbH) and coverslips (CarlRoth Chemicals). The slides were evaluated independently using a brightfield microscope (Axioplan, Zeiss). Photos were taken using the Hamamatsu-Nanozoomer HT2.0 in 1.25×, 5×. 20× and 40× magnification. The hepatic steatosis score is defined as the unweighted sum of the three individual scores for steatosis, lobular inflammation and ballooning degeneration. Steatosis is graded by the presence of fat vacuoles in liver cells according to the percentage of affected tissue (0: <5%; 1: 5-33%; 2: 33-66%; 3: >66%). Lobular inflammation is scored by overall assessment of inflammatory foci per 200× field (0: no foci; 1: <2 foci; 2: 2-4 foci; 3: >4 foci). The individual score for ballooning degeneration ranges from 0 (none), 1 (few cells) to 2 (many cells). Total scores range from 0 to 8 with scores <2 considered non-steatosis, 3 considered as borderline steatosis, 4-5 considered onset of steatosis, and >6 considered steatosis. Different to liver and heart, inguinal fat pad samples were embedded in paraffin using Leica embedding machine (EG1150 H) and cut in 5 μm sections using Leica Microtome (RM2255) to perform H&E staining. Samples were stained with hematoxyline for 4 minutes and eosinY for 2 minutes and fixed with Roti®-Histokitt (Carl Roth) before analysing them independently using Microscope Scope A.1 (Zeiss).
For transthoracic echocardiography, a Vevo2100 Imaging System (VisualSonics Inc., Toronto Canada) with a 30 MHz probe was used. All echocardiograms were performed on conscious animals to prevent anesthesia-related impairment of cardiac function as reported previously. Briefly, echocardiograms were obtained in parasternal long and short axis views. For accurate linear measurements of LV internal dimensions (LVID) and […] (LVPW) or septal (IVS) wall thicknesses, M-mode images of the heart in parasternal short-axis view at the level of the papillary muscle were acquired. Qualitative and quantitative measurements were made offline using analytical software (VisualSonics Inc.). Fractional shortening (FS) was calculated as FS %=[(LVIDd−LVIDs)/LVIDd]×100. Ejection fraction (EF) was calculated as EF %=100*((LVvolD−LVvolS)/LVvolD) with LVvol=((7.0/(2.4+LVID)*LVID^3). The corrected LV mass (LV MassCor) was calculated as LV MassCor=0.8(1.053*((LVIDd+LVPWd+IVSd)^3−LVIDd^3)). Heart rate and respiration rate were determined from M-mode tracings, using 3 consecutive intervals.
Gene expression profiling in the liver, iWAT, eWAT, BAT, and heart were performed following treatment of mice according to the treatment paradigms explained in the figure legends for each specific analsysis. For tissue collection, mice were fasted for 4 h and treated with compounds 2 h prior to tissue collection. Gene expression was profiled with quantitative real-time RT-PCR using either TaqMan single probes or with specifically-designed TaqMan low-density array cards. The relative expression of the selected genes was normalized to the reference gene hypoxanthine-guanine phosphoribosyltransferase (Hprt).

For `N[C@@H](Cc1cc(I)c(Oc2ccc(O)c(I)c2)c(I)c1)C(=O)O` [T3, 3,5,3′-triiodothryonine], the “pyruvate tolerance (hepatic glucose output)” value in the series with DIO mice [1] was “substantially improved”. Moreover, the “home cage (ambulatory) activity” value in series [2] (DIO mice on HFHSD) was “significantly increased”. Further, the food intake result in series [2] (DIO mice on HFHSD, 7 days) is given as “increased”. Also, in series [2] (DIO mice on HFHSD, equimolar doses, 100 nmol kg-1 daily, 7 days), the body weight lowering result is on record as “Neither glucagon nor T3 appreciably lowered body weight”. In addition, the whole-body energy expenditure result in series [2] (DIO mice on HFHSD, indirect calorimetry) is “substantially increased”. In series [2] (mouse, in vivo), the “circulating levels of T3” value was “resulted in an increase” and the rectal temperature entry was “increased rectal temperature”. Also, in the series with DIO mice [3] (histological profiling of the hearts), the “heart histology: cell death” value is “marked cell death was detectable”. Further, in the series with DIO mice [3] (mouse, in vivo), the “heart histology: thyrotoxic cardiomyopathy” value is “marked features of thyrotoxic cardiomyopathy”; the “whole heart expression of T3-sensitive genes (Dio2, Ucp2)” value is recorded as “directly increased”; the “whole heart expression of hypertrophic gene markers (Nppa, Nppb)” value is recorded as “directly increased”.
